Data from patent publication US20100068359A1, “PRESERVATIVE METHOD” (CONOPCO, INC., D/B/A UNILEVER, priority 2008, published 2010).

Tests used:
APRY yeast [1] = experiment: APRY yeast challenge in YM broth with equal molar salts; assay type: cell-based, Zygosaccharomyces bailii and/or Zygosaccharomyces rouxii
Experimental: • 1. The growth media of the Bidlas et al. reference was used (YM broth and stock pH (6.0). (Growth media—YMB, Sabourda, PDB • 2. Three salts (NaCl, KCl, NH4Cl) were added in a increasing level. […] The detailed salt amounts are shown in the Table 7 below. • 3. The target pH for all compositions was 5.5. • 4. The effects on APRY Yeast, instead of pathogens as in Bidlas et al. were studied. • 5. Inhibition was measured by CFUs (colony forming units) • 6. Dramatic increases in APRY yeast levels are observed after more than about two days.

APRY yeast [2] = experiment: Challenge study in full fat mayonnaise model, APRY yeast; assay type: cell-based, Zygosaccharomyces bailii and/or Zygosaccharomyces rouxii
Text: • 1. […] Formula adjustments were made to keep aqueous acetic acid and sugar levels constant, i.e. % active/(% water+% active)×100, i.e., about 1.53% to about 1.54% aqueous acetic acid and about 6.32% to about 6.36% aqueous sugar. • 3. […] Analytical data supported that the per cent replacement targets were met, […] The results of the challenge study over a number of weeks were reported (see Challenge Data in the Tables 3, 4 and 5 below).

N.N.O=P(O)(O)O [DAP, di-ammonium hydrogen phosphate]
APRY yeast level in broth (APRY yeast [1]; 0.51 N salt, day 0): 17,600 CFUs
APRY yeast level in broth (APRY yeast [1]; 0.51 N salt, day 1): 324,000 CFUs
APRY yeast level in broth (APRY yeast [1]; 0.51 N salt, day 1½): 630,000 CFUs
APRY yeast level in broth (APRY yeast [1]; 0.51 N salt, day ½): 8,100 CFUs
APRY yeast level in broth (APRY yeast [1]; 1.03 N salt, day 0): 21,000 CFUs
APRY yeast level in broth (APRY yeast [1]; 1.03 N salt, day 1): 10,200 CFUs
APRY yeast level in broth (APRY yeast [1]; 1.03 N salt, day 1½): 24,000 CFUs
APRY yeast level in broth (APRY yeast [1]; 1.03 N salt, day 2): 250,000 CFUs
APRY yeast level in broth (APRY yeast [1]; 1.03 N salt, day ½): 7,100 CFUs
APRY yeast level in broth (APRY yeast [1]; 1.54 N salt, day 0): 6,000 CFUs
APRY yeast level in broth (APRY yeast [1]; 1.54 N salt, day 1): 10,300 CFUs
APRY yeast level in broth (APRY yeast [1]; 1.54 N salt, day 1½): 2,000 CFUs
APRY yeast level in broth (APRY yeast [1]; 1.54 N salt, day 2): 6,700 CFUs
APRY yeast level in broth (APRY yeast [1]; 1.54 N salt, day 5): 120,900 CFUs
APRY yeast level in broth (APRY yeast [1]; 1.54 N salt, day 6): 117,600 CFUs
APRY yeast level in broth (APRY yeast [1]; 1.54 N salt, day 8): 820,000 CFUs
APRY yeast level in broth (APRY yeast [1]; 1.54 N salt, day 11): 570,000 CFUs
APRY yeast level in broth (APRY yeast [1]; 1.54 N salt, day 13): 141,000 CFUs
APRY yeast level in broth (APRY yeast [1]; 1.54 N salt, day 14): 280,000 CFUs
APRY yeast level in broth (APRY yeast [1]; 1.54 N salt, day ½): 13,000 CFUs
APRY yeast level in broth (APRY yeast [1]; 2.05 N salt, day 0): 10,000 CFUs
APRY yeast level in broth (APRY yeast [1]; 2.05 N salt, day 1): 11,500 CFUs
APRY yeast level in broth (APRY yeast [1]; 2.05 N salt, day 1½): 6,000 CFUs
APRY yeast level in broth (APRY yeast [1]; 2.05 N salt, day 2): 7,100 CFUs
APRY yeast level in broth (APRY yeast [1]; 2.05 N salt, day 5): 980 CFUs
APRY yeast level in broth (APRY yeast [1]; 2.05 N salt, day 6): 5,000 CFUs
APRY yeast level in broth (APRY yeast [1]; 2.05 N salt, day 8): 2,500 CFUs
APRY yeast level in broth (APRY yeast [1]; 2.05 N salt, day 11): 4,000 CFUs
APRY yeast level in broth (APRY yeast [1]; 2.05 N salt, day 13): 1,600 CFUs
APRY yeast level in broth (APRY yeast [1]; 2.05 N salt, day 14): 3,000 CFUs
APRY yeast level in broth (APRY yeast [1]; 2.05 N salt, day ½): 9,600 CFUs

[Cl-].[K+] [KCl, potassium chloride]
APRY yeast level in broth (APRY yeast [1]; 0.51 N salt, day 0): 3,800 CFUs
APRY yeast level in broth (APRY yeast [1]; 0.51 N salt, day 1): 280,000 CFUs
APRY yeast level in broth (APRY yeast [1]; 0.51 N salt, day ½): 14,200 CFUs
APRY yeast level in broth (APRY yeast [1]; 1.03 N salt, day 0): 12,000 CFUs
APRY yeast level in broth (APRY yeast [1]; 1.03 N salt, day 1): 78,000 CFUs
APRY yeast level in broth (APRY yeast [1]; 1.03 N salt, day 1½): 772,000 CFUs
APRY yeast level in broth (APRY yeast [1]; 1.03 N salt, day ½): 12,300 CFUs
APRY yeast level in broth (APRY yeast [1]; 1.54 N salt, day 0): 13,800 CFUs
APRY yeast level in broth (APRY yeast [1]; 1.54 N salt, day 1): 11,600 CFUs
APRY yeast level in broth (APRY yeast [1]; 1.54 N salt, day 1½): 85,000 CFUs
APRY yeast level in broth (APRY yeast [1]; 1.54 N salt, day ½): 7,900 CFUs
APRY yeast level in broth (APRY yeast [1]; 2.05 N salt, day 0): 7,300 CFUs
APRY yeast level in broth (APRY yeast [1]; 2.05 N salt, day 1): 3,300 CFUs
APRY yeast level in broth (APRY yeast [1]; 2.05 N salt, day 1½): 8,000 CFUs
APRY yeast level in broth (APRY yeast [1]; 2.05 N salt, day 2): 68,000 CFUs
APRY yeast level in broth (APRY yeast [1]; 2.05 N salt, day ½): 7,900 CFUs
growth of APRY yeast in the broth system (APRY yeast [1]; YM broth, target pH 5.5): does not inhibit the growth of APRY yeast

Cl.N [NH4Cl, ammonium chloride]
APRY yeast level in broth (APRY yeast [1]; 0.51 N salt, day 0): 10,200 CFUs
APRY yeast level in broth (APRY yeast [1]; 0.51 N salt, day 1): 260,000 CFUs
APRY yeast level in broth (APRY yeast [1]; 0.51 N salt, day 1½): 672,000 CFUs
APRY yeast level in broth (APRY yeast [1]; 0.51 N salt, day ½): 11,700 CFUs
APRY yeast level in broth (APRY yeast [1]; 1.03 N salt, day 0): 8,100 CFUs
APRY yeast level in broth (APRY yeast [1]; 1.03 N salt, day 1): 32,000 CFUs
APRY yeast level in broth (APRY yeast [1]; 1.03 N salt, day 1½): 14,000 CFUs
APRY yeast level in broth (APRY yeast [1]; 1.03 N salt, day 2): 53,000 CFUs
APRY yeast level in broth (APRY yeast [1]; 1.03 N salt, day ½): 6,000 CFUs
APRY yeast level in broth (APRY yeast [1]; 1.54 N salt, day 0): 10,900 CFUs
APRY yeast level in broth (APRY yeast [1]; 1.54 N salt, day 1): 3,100 CFUs
APRY yeast level in broth (APRY yeast [1]; 1.54 N salt, day 1½): 7,000 CFUs
APRY yeast level in broth (APRY yeast [1]; 1.54 N salt, day 2): 39,500 CFUs
APRY yeast level in broth (APRY yeast [1]; 1.54 N salt, day 5): 2,200 CFUs
APRY yeast level in broth (APRY yeast [1]; 1.54 N salt, day 6): 3,000 CFUs
APRY yeast level in broth (APRY yeast [1]; 1.54 N salt, day 8): 2,900 CFUs
APRY yeast level in broth (APRY yeast [1]; 1.54 N salt, day 11): 4,600 CFUs
APRY yeast level in broth (APRY yeast [1]; 1.54 N salt, day 13): 40,000 CFUs
APRY yeast level in broth (APRY yeast [1]; 1.54 N salt, day 14): 84,000 CFUs
APRY yeast level in broth (APRY yeast [1]; 1.54 N salt, day ½): 7,200 CFUs
APRY yeast level in broth (APRY yeast [1]; 2.05 N salt, day 0): 8,900 CFUs
APRY yeast level in broth (APRY yeast [1]; 2.05 N salt, day 1): 3,100 CFUs
APRY yeast level in broth (APRY yeast [1]; 2.05 N salt, day 1½): 10,000 CFUs
APRY yeast level in broth (APRY yeast [1]; 2.05 N salt, day 2): 36,100 CFUs
APRY yeast level in broth (APRY yeast [1]; 2.05 N salt, day 5): 700 CFUs
APRY yeast level in broth (APRY yeast [1]; 2.05 N salt, day 6): 700 CFUs
APRY yeast level in broth (APRY yeast [1]; 2.05 N salt, day 8): 1,600 CFUs
APRY yeast level in broth (APRY yeast [1]; 2.05 N salt, day 11): 400 CFUs
APRY yeast level in broth (APRY yeast [1]; 2.05 N salt, day 13): 600 CFUs
APRY yeast level in broth (APRY yeast [1]; 2.05 N salt, day 14): 800 CFUs
APRY yeast level in broth (APRY yeast [1]; 2.05 N salt, day ½): 5,800 CFUs
Observation: APRY outgrowth / stability (APRY yeast [2]): faster APRY die-off

[Cl-].[Na+] [NaCl, sodium chloride]
APRY yeast level in broth (APRY yeast [1]; 0.51 N salt, day 0): 13,100 CFUs
APRY yeast level in broth (APRY yeast [1]; 0.51 N salt, day 1): 440,000 CFUs
APRY yeast level in broth (APRY yeast [1]; 0.51 N salt, day ½): 4,300 CFUs
APRY yeast level in broth (APRY yeast [1]; 1.03 N salt, day 0): 10,000 CFUs
APRY yeast level in broth (APRY yeast [1]; 1.03 N salt, day 1): 3,200 CFUs
APRY yeast level in broth (APRY yeast [1]; 1.03 N salt, day 1½): 7,000 CFUs
APRY yeast level in broth (APRY yeast [1]; 1.03 N salt, day 2): 29,000 CFUs
APRY yeast level in broth (APRY yeast [1]; 1.03 N salt, day ½): 6,900 CFUs
APRY yeast level in broth (APRY yeast [1]; 1.54 N salt, day 0): 13,200 CFUs
APRY yeast level in broth (APRY yeast [1]; 1.54 N salt, day 1): 2,300 CFUs
APRY yeast level in broth (APRY yeast [1]; 1.54 N salt, day 1½): 8,000 CFUs
APRY yeast level in broth (APRY yeast [1]; 1.54 N salt, day 2): 3,900 CFUs
APRY yeast level in broth (APRY yeast [1]; 1.54 N salt, day 5): 2,740 CFUs
APRY yeast level in broth (APRY yeast [1]; 1.54 N salt, day 6): 1,840 CFUs
APRY yeast level in broth (APRY yeast [1]; 1.54 N salt, day 8): 3,600 CFUs
APRY yeast level in broth (APRY yeast [1]; 1.54 N salt, day 11): 3,300 CFUs
APRY yeast level in broth (APRY yeast [1]; 1.54 N salt, day 13): 2,900 CFUs
APRY yeast level in broth (APRY yeast [1]; 1.54 N salt, day 14): 3,500 CFUs
APRY yeast level in broth (APRY yeast [1]; 1.54 N salt, day ½): 3,800 CFUs
APRY yeast level in broth (APRY yeast [1]; 2.05 N salt, day 0): 9,800 CFUs
APRY yeast level in broth (APRY yeast [1]; 2.05 N salt, day 1): 2,700 CFUs
APRY yeast level in broth (APRY yeast [1]; 2.05 N salt, day 1½): 7,000 CFUs
APRY yeast level in broth (APRY yeast [1]; 2.05 N salt, day 2): 4,500 CFUs
APRY yeast level in broth (APRY yeast [1]; 2.05 N salt, day 5): 1,730 CFUs
APRY yeast level in broth (APRY yeast [1]; 2.05 N salt, day 6): 2,110 CFUs
APRY yeast level in broth (APRY yeast [1]; 2.05 N salt, day 8): 1,600 CFUs
APRY yeast level in broth (APRY yeast [1]; 2.05 N salt, day 11): 700 CFUs
APRY yeast level in broth (APRY yeast [1]; 2.05 N salt, day 13): 700 CFUs
APRY yeast level in broth (APRY yeast [1]; 2.05 N salt, day 14): 800 CFUs
APRY yeast level in broth (APRY yeast [1]; 2.05 N salt, day ½): 5,100 CFUs

[Ca+2].[Cl-].[Cl-] [calcium chloride]
Z. bailii outgrowth (Z. bailii): enhance Z. bailii outgrowth

[Cl-].[Cl-].[Mg+2] [magnesium chloride]
Z. bailii outgrowth (Z. bailii): enhance Z. bailii outgrowth
